Laboratory results taken from PubChem BioAssay AID2060486 (Molecular Pharmacology Branch, DTP, NCI, 2025).
Where “and” joins values, the source holds several entries; their conditions need not be identical. Equal entries are not always repeated.

Tested on: IGROV1 complex spheroids (HUVEC, MSC), viability % test/control
Test: Anticancer human tumor IGROV1 cell line growth inhibition [GQUAD];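 also: spheroids exposed to compounds for 7 days before readout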;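 as to viability, T/C: 100% = DMSO vehicle control viability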
Conditions: for viability, T/C: stronger effect = lower value
Method in brief: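 Tumor cells were grown as complex spheroids with HUVEC endothelial cells and mesenchymal stem cells as stroma. G-quadruplex stabilizers were combined with targeted agents over half-log dilutions from near the clinical Cmax, or from 10 microM.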

[1] = curve of first compound, second compound 0.0316 µM
[2] = curve of first compound, second compound 0.1 µM
[3] = curve of first compound, second compound 0.316 µM
[4] = curve of first compound, second compound 1 µM
[5] = curve of first compound, second compound 3.16 µM
[6] = curve of first compound, second compound 10 µM
[7] = second compound 0.0316 µM, first compound 0.0316 µM
[8] = second compound 0.0316 µM, first compound 0.1 µM
[9] = second compound 0.0316 µM, first compound 0.316 µM
[10] = second compound 0.0316 µM, first compound 1 µM
[11] = second compound 0.0316 µM, first compound 3.16 µM
[12] = second compound 0.0316 µM, first compound 10 µM
[13] = second compound 0.1 µM, first compound 0.0316 µM
[14] = second compound 0.1 µM, first compound 0.1 µM
[15] = second compound 0.1 µM, first compound 0.316 µM
[16] = second compound 0.1 µM, first compound 1 µM
[17] = second compound 0.1 µM, first compound 3.16 µM
[18] = second compound 0.1 µM, first compound 10 µM
[19] = second compound 0.316 µM, first compound 0.0316 µM
[20] = second compound 0.316 µM, first compound 0.1 µM
[21] = second compound 0.316 µM, first compound 0.316 µM
[22] = second compound 0.316 µM, first compound 1 µM
[23] = second compound 0.316 µM, first compound 3.16 µM
[24] = second compound 0.316 µM, first compound 10 µM
[25] = second compound 1 µM, first compound 0.0316 µM
[26] = second compound 1 µM, first compound 0.1 µM
[27] = second compound 1 µM, first compound 0.316 µM
[28] = second compound 1 µM, first compound 1 µM
[29] = second compound 1 µM, first compound 3.16 µM
[30] = second compound 1 µM, first compound 10 µM
[31] = second compound 3.16 µM, first compound 0.0316 µM
[32] = second compound 3.16 µM, first compound 0.1 µM
[33] = second compound 3.16 µM, first compound 0.316 µM
[34] = second compound 3.16 µM, first compound 1 µM
[35] = second compound 3.16 µM, first compound 3.16 µM
[36] = second compound 3.16 µM, first compound 10 µM
[37] = second compound 10 µM, first compound 0.0316 µM
[38] = second compound 10 µM, first compound 0.1 µM
[39] = second compound 10 µM, first compound 0.316 µM
[40] = second compound 10 µM, first compound 1 µM
[41] = second compound 10 µM, first compound 3.16 µM
[42] = second compound 10 µM, first compound 10 µM

For `O=C(c1cc(Cc2n[nH]c(=O)c3ccccc23)ccc1F)N1CCN(C(=O)C2CC2)CC1` + CN(C)c1ccc(Nc2c3ccc(NC(=O)CCN4CCCC4)cc3nc3cc(NC(=O)CCN4CCCC4)ccc23)cc1, the IC50 [1] was 3870 nM, the IC50 [2] was 4570 nM and the IC50 [3] was 3730 nM. The IC50 [4] was 4880 nM, the IC50 [5] was 2360 nM and the IC50 [6] was less than 31.6 nM. It also gave a viability, T/C [7] of 87.2%, a viability, T/C [8] of 81.6% and a viability, T/C [9] of 67.3%. The viability, T/C [10] was 67.9%, the viability, T/C [11] was 61.6% and the viability, T/C [12] was 22.1%. The viability, T/C [13] was 92.9%, the viability, T/C [14] was 87.2% and the viability, T/C [15] was 83.9%. For the same compound, the viability, T/C [16] was 74.8%, the viability, T/C [17] was 67.6% and the viability, T/C [18] was 20.3%. For the same compound, the viability, T/C [19] was 66.1%, the viability, T/C [20] was 87.3% and the viability, T/C [21] was 78.4%. For the same compound, the viability, T/C [22] was 73.3%, the viability, T/C [23] was 54.3% and the viability, T/C [24] was 24.4%. It also gave a viability, T/C [25] of 62.2%, a viability, T/C [26] of 90.4% and a viability, T/C [27] of 86.9%. The viability, T/C [28] was 71.7%, the viability, T/C [29] was 66.1% and the viability, T/C [30] was 24.6%. For the same compound, the viability, T/C [31] was 58.3%, the viability, T/C [32] was 87.8% and the viability, T/C [33] was 78.6%. For the same compound, the viability, T/C [34] was 51.9%, the viability, T/C [35] was 49.9% and the viability, T/C [36] was 20.7%. It also gave a viability, T/C [37] of 50.9%, a viability, T/C [38] of 44.6% and a viability, T/C [39] of 38.4%. The viability, T/C [40] was 37.6%, the viability, T/C [41] was 30.1% and the viability, T/C [42] was 11.8%.

In the case of `COc1cc(C2c3cc4c(cc3C(OC3OC5COC(C)OC5C(O)C3O)C3COC(=O)C23)OCO4)cc(OC)c1O` (stereo not drawn), the viability, T/C (compound 0.0316 µM) is reported as 87.7% and 74.7% and 87.1%, the viability, T/C (compound 0.1 µM) is reported as 50.5% and 54.1% and 56.5% and the viability, T/C (compound 0.316 µM) is reported as 23.5% and 21.2% and 26.5%. The viability, T/C (compound 1 µM) was 14% and 12.6% and 12.7%, the viability, T/C (compound 3.16 µM) was 10.9% and 11.7% and 9.02% and the viability, T/C (compound 10 µM) was 5.01% and 6.17% and 5.68%. For the same compound, the IC50 (curve of compound) was 99.8 nM and 115 nM and 128 nM.

In the case of `Cn1ncnc1[C@H]1c2n[nH]c(=O)c3cc(F)cc(c23)N[C@@H]1c1ccc(F)cc1`, the viability, T/C (compound 0.000999 µM) is reported as 97.2% and 105% and 82.2%, the viability, T/C (compound 0.00316 µM) is reported as 92.2% and 77% and 90.2% and the viability, T/C (compound 0.00999 µM) is reported as 76.3% and 86.3% and 86.2%. The viability, T/C (compound 0.0316 µM) was 70% and 67.1% and 66.2%, the viability, T/C (compound 0.0999 µM) was 53.7% and 55% and 46.8% and the viability, T/C (compound 0.316 µM) was 36.7% and 29.4% and 34.7%. For the same compound, the IC50 (curve of compound) was 128 nM and 110 nM and 77.8 nM.

`C#Cc1c(F)ccc2cc(O)cc(-c3ncc4c(N5CC6CCC(C5)N6)nc(OCC56CCCN5CC(F)C6)nc4c3F)c12` (stereo not drawn) + Cc1cnc(CNC(=O)c2c(=O)c3ccc(N4CCCN(C)CC4)nc3n3c2sc2ccccc23)cn1 showed an IC50 [1] of 2820 nM, an IC50 [2] of less than 31.6 nM and an IC50 [3] of less than 31.6 nM. It also gave an IC50 [4] of less than 31.6 nM, an IC50 [5] of less than 31.6 nM and an IC50 [6] of less than 31.6 nM. For the same compound, the viability, T/C [7] was 70%, the viability, T/C [8] was 67.6% and the viability, T/C [9] was 58.5%. For the same compound, the viability, T/C [10] was 56.4%, the viability, T/C [11] was 47.6% and the viability, T/C [12] was 45.3%. For the same compound, the viability, T/C [13] was 40.6%, the viability, T/C [14] was 41.9% and the viability, T/C [15] was 36.5%. It also gave a viability, T/C [16] of 27.3%, a viability, T/C [17] of 35.8% and a viability, T/C [18] of 17.3%. For the same compound, the viability, T/C [19] was 21.4%, the viability, T/C [20] was 21.5% and the viability, T/C [21] was 20.7%. For the same compound, the viability, T/C [22] was 24.7%, the viability, T/C [23] was 18.3% and the viability, T/C [24] was 15.1%. For the same compound, the viability, T/C [25] was 16.7%, the viability, T/C [26] was 16.4% and the viability, T/C [27] was 11.1%. The viability, T/C [28] was 13.3%, the viability, T/C [29] was 14.5% and the viability, T/C [30] was 7.91%. For the same compound, the viability, T/C [31] was 9.65%, the viability, T/C [32] was 9.22% and the viability, T/C [33] was 8.28%. The viability, T/C [34] was 10.1%, the viability, T/C [35] was 10% and the viability, T/C [36] was 6.58%. For the same compound, the viability, T/C [37] was 7.28%, the viability, T/C [38] was 7.39% and the viability, T/C [39] was 9.03%. It also gave a viability, T/C [40] of 8.87%, a viability, T/C [41] of 8.84% and a viability, T/C [42] of 7.64%.
